From patent US20220388969A1, “SUBSTITUTED 3,4-DIHYDROQ[…] THE TREATMENT AND PROPHYLAXIS OF HEPATITIS B VIRUS INFECTION” (priority 2019, published 2022) come the findings set out here.

Experiment [1] has as its system HBeAg level in HepDES19 cells (surrogate marker for HBV cccDNA). Put plainly: Engineered HepDES19 primary screen assay (HBeAg as surrogate marker for cccDNA). As to conditions: Hepatitis B virus, 120 h; HepDES19 cells, 5 days incubation with compound, HBeAg ELISA; read-out: IC50 (HBeAg level, HepDES19 primary screen assay). Type of experiment: cell-based. The text has this: The assay was employed to screen for novel cccDNA inhibitors. HepDES19 is a cccDNA-producing cell line. In this cell line, HBeAg in the cell culture supernatant as surrogate marker, as HBeAg production depends on cccDNA level and activity. HepDES19 is an engineered cell line which contains a 1.1 unit length HBV genome, and pgRNA transcription from the transgene is controlled by Tetracycline (Tet). In the absence of Tet, pgRNA transcription will be induced, but HBV e antigen (HBeAg) could not be produced from this pgRNA due to very short leader sequence before the HBeAg start codon and the start codon is disrupted. Only after cccDNA is formed, the missing leader sequence and start codon mutation would be restored from the 3′-terminal redundancy of pgRNA, and then HBeAg could be synthesized. Therefore, HBeAg could be used as a surrogate marker for cccDNA (Zhou, T. et al., Antiviral Res.(2006), 72(2), 116-124; Guo, H. et al., J. Virol. (2007), 81(22), 12472-12484).
HepDES19 cells were seeded at 2×10^6 cells per T150 flask and cultured with the culture medium (Dulbecco's Modified Eagle Medium: Nutrient Mixture F-12 [DMEM-F12, Gibco Cat. 11320-82], 10% Fetal Bovine Serum [FBS, Clontech Cat. 631101], 0.1 mM Non-Essential Amino Acids Solution [NEAA, Gibco Cat. 11140-050], 50 μg/mL Penicillin-Streptomycin [PS, Invitrogen Cat. 15140-163], 500 μg/mL Geneticin [G418, Invitrogen Cat. 10131-027]) containing 3 μg/mL Tet (Sigma, Cat. 87128) for 5 days. Cells were then seeded at 4×10^6 cells per T150 in the same culture medium as described above in the absence of Tet for 8 days. Cells were then harvested and frozen at density of 2×10^6 cells per mL. For compound testing, the frozen cells were thawed and seeded into 96-well plates at a density of 6 ×10^4 cells per well. At 24hours after seeding, half log serial dilutions of compounds made with Dimethyl sulfoxide (DMSO, Sigma, Cat. D2650) were further diluted with the same culture medium as described above before they were added to the cells to reach desired final compound concentrations and 1% DMSO concentration. Plates were then incubated at 37° C. for another 5 days before measurement of HBeAg level and cell viability. Intracellular HBeAg level were measured with enzyme-linked immunosorbent assay (ELISA) kit (Shanghai Kehua Diagnostic Medical Products Co., Ltd). Cell viability was assessed using Cell Counting Kit-8 (DonJindo, Cat. CK04-20). IC50 values were derived from the dose-response curve using 4 parameter logistic curve fit method.
The compounds of the present invention were tested for their capacity to inhibit extracellular HBeAg level as described herein.
(In general: An ELISA detects its analyte on a solid surface through an enzyme-linked reagent.)

The subject of experiment [2] is HBsAg in HBV-infected primary human hepatocytes. Put plainly: Cryopreserved primary human hepatocytes (PHH) HBV infection assay, extracellular HBsAg. Type of experiment: cell-based. As to conditions: Hepatitis B virus, Hepatocyte, 216 h, read-out: HBsAg IC50. The procedure:
This assay is used to confirm the anti-HBV effect of the compounds in HBV PHH infection assay. Cryopreserved PHH (BioreclamationlVT, Lot YJM) was thawed at 37° C. and gently transferred into pre-warmed InVitroGRO HT medium (BioreclamationIVT, Cat. S03317). The mixture was centrifuged at 70 relative centrifugal force (RCF) for 3 minutes at RT, and the supernatant was discarded. Pre-warmed InVitroGRO CP medium (BioreclamationlVT, Cat# S03316) was added to the cell pellet to gently re-suspend cells. The cells were seeded at the density of 5.8×10^4 cells per well to collagen I coated 96-well plate (Gibco, Cat. A1142803) with the InVitroGRO CP medium. All plates were incubated at 37° C. with 5% CO2 and 85% humidity.
At 20 hours after plating, the medium was changed to PHH culture medium (Dulbecco's Modified Eagle Medium (DMEM)/F12 (1:1) (Gibco, Cat. 11320-033), 10% fetal bovine serum (Gibco Cat. 10099141), 100 U/mL penicillin, 100 μg/mL streptomycin (Gibco, Cat. 151401-122), 5 ng/mL human epidermal growth factor (Invitrogen Cat. PHG0311L), 20 ng/mL dexamethasone (Sigma, Cat. D4902) and 250 ng/mL human recombinant insulin (Gibco, Cat. 12585-014)). And the cells were incubated at 37° C. with 5% CO2 and 85% humidity for 4 hours. The medium was then changed to pre-warmed PHH culture medium containing 4% polyethylene glycol (PEG) MW8000 (Sigma, Cat. P1458-50ML) and 1% DMSO (Sigma, Cat. D2650). 5.8×10^6 genomic equivalents of HBV were added into the medium.
At 24 hours post-infection, the cells were gently washed with PBS and refreshed with PHH culture medium supplemented with 1% DMSO, and 0.25 mg/mL Matrix gel (Corning, Cat. 356237) at 200 μL per well. All plates were immediately placed in at 37° C. CO2 incubator.
24 hours later, serial dilutions of compounds made with DMSO were further diluted with the same culture medium (PHH culture medium supplemented with 1% DMSO and 0.25 mg/mL Matrix gel as described above) before they were added to the cells to reach desired final compound concentrations and 1% DMSO concentration. The medium containing the compounds were refreshed every three days.
At 9 days post-compound treatment, extracellular HBsAg level were measured with Chemiluminescence Immuno Assay (CLIA) kit (Autobio, HBsAg Quantitative CLIA).
HBsAg IC50 values were derived from the dose-response curve using 4 parameter logistic curve fit method. The compounds of formula (I) have HBsAg IC50<20 μM, particularly <1 μM.

The structures appear in SMILES notation.

`Cc1cc(OCCOC2CC(C(=O)O)C2)ccc1C1=Nc2c(Cl)cccc2C(C)N1` (centres unmarked) [Example 22, 3-[2-[4-(8-chloro-4-methyl-3,4-dihydroquinazolin-2-yl)-3-methyl-phenoxy]ethoxy]cyclobutanecarboxylic Acid]: the concentration for half-maximal inhibition (IC50) is 8430 nM in experiment [1] and 670 nM in experiment [2].

For `O=C(O)C1NC(c2ccccc2)=Nc2c(Cl)cccc21` (centres unmarked) [Example 2, 8-chloro-2-phenyl-3,4-dihydroquinazoline-4-carboxylic Acid], the IC50 is 2990 nM in experiment [1] and 415 nM in experiment [2].

On to `O=C(O)C1NC(c2ccc(Br)cc2)=Nc2c(Cl)cccc21` (centres unmarked) [Example 1, 2-(4-bromophenyl)-8-chloro-3,4-dihydroquinazoline-4-carboxylic Acid], for which the IC50 in experiment [1] came out at 5650 nM; in experiment [2] it was 3070 nM.

On to `COC(=O)c1ccc(-c2csc(C3=Nc4c(Cl)cccc4C(C)N3)n2)cc1` (centres unmarked) [Example 32, methyl 4-[2-(8-chloro-4-methyl-3,4-dihydroquinazolin-2-yl)thiazol-4-yl]benzoate], for which the values for the half-maximal inhibitory concentration (IC50) in experiment [1] and in experiment [2] were 860 nM and 24 nM, respectively.

Consider `COc1ccc(C2=Nc3c(Cl)cccc3C(C(=O)O)N2)cc1` (centres unmarked) [Example 4, 8-chloro-2-(4-methoxyphenyl)-3,4-dihydroquinazoline-4-carboxylic Acid], for which the IC50 in experiment [1] is 880 nM; in experiment [2], 1950 nM.

`COc1ccc(C2=Nc3c(Cl)cccc3C(C(=O)NCCO)N2)cc1` (centres unmarked) [Example 16, 8-chloro-N-(2-hydroxyethyl)-2-(4-methoxyphenyl)-3,4-dihydroquinazoline-4-carboxamide]: the IC50 turned out to be 2030 nM in experiment [1] and 4540 nM in experiment [2].

On to `O=C(O)C1NC(c2ccc(Br)cc2)=Nc2cc(C(F)(F)F)ccc21` (centres unmarked) [Example 7, 2-(4-bromophenyl)-7-(trifluoromethyl)-3,4-dihydroquinazoline-4-carboxylic Acid], for which the IC50 was 3010 nM in experiment [1] and 2310 nM in experiment [2].

Turning to `COC(=O)C1NC(c2ccc(Br)cc2)=Nc2c(Cl)cccc21` (centres unmarked) [Example 12, methyl 2-(4-bromophenyl)-8-chloro-3,4-dihydroquinazoline-4-carboxylate], the IC50 in experiment [1] was found to be 330 nM; in experiment [2], 1360 nM.

`Cc1cc(C2=Nc3c(Cl)cccc3C(C(=O)O)N2)ccc1Br` (centres unmarked) [Example 5, 2-(4-bromo-3-methyl-phenyl)-8-chloro-3,4-dihydroquinazoline-4-carboxylic Acid]: the IC50 in experiment [1] was 560 nM; in experiment [2], 4370 nM.

With `NC(=O)C1NC(c2ccc(Br)cc2)=Nc2c(Cl)cccc21` (centres unmarked) [Example 13, 2-(4-bromophenyl)-8-chloro-3,4-dihydroquinazoline-4-carboxamide], the values for the half-inhibitory concentration (IC50) in experiment [1] and in experiment [2] were 70 nM and 2840 nM, respectively.

As for `CC(C)C1NC(c2ccc(Br)cc2)=Nc2c(Cl)cccc21` (centres unmarked) [Example 36, 2-(4-bromophenyl)-8-chloro-4-isopropyl-3,4-dihydroquinazoline], the IC50 in experiment [1] is 6530 nM; in experiment [2] it was 42 nM.

In the case of `CC1NC(c2ccc(OCCOC3CC(C(=O)O)C3)cc2)=Nc2cc(C(F)(F)F)ccc21` (centres unmarked) [Example 19, 3-[2-[4-[4-methyl-7-(trifluoromethyl)-3,4-dihydroquinazolin-2-yl]phenoxy]ethoxy]cyclobutanecarboxylic Acid], the 50% inhibitory concentration (IC50) was 4400 nM in experiment [1] and 7630 nM in experiment [2].

As to `O=C(O)C1NC(c2cccc(Br)c2)=Nc2cc(C(F)(F)F)ccc21` (centres unmarked) [Example 6, 2-(3-bromophenyl)-7-(trifluoromethyl)-3,4-dihydroquinazoline-4-carboxylic Acid], the values for the IC50 in experiment [1] and in experiment [2] were 3430 nM and 7180 nM, respectively.

One may read the IC50 as the concentration that gives 50% inhibition.
